ChEMBL document CHEMBL1201862, “PubChem BioAssay data set” (2004)
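The compound was tested at five concentrations on cells cultured in 96-well plates, with a 48-hour exposure period. GI50 = concentration required for 50% inhibition of growth.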 The source made the active and inactive calls. Rule as the data show it: active = GI50 up to about 1.1 µM and inactive = higher.

Legend:
Experiment in all cases: DTP human tumour cell line panel, 48 h
LOX IMVI = tested on: LOX IMVI
M14 = tested on: M14
CAKI-1 = tested on: CAKI-1
ACHN = tested on: ACHN
U-251 = tested on: U-251
SR = tested on: SR
UO-31 = tested on: UO-31
UACC-257 = tested on: UACC-257
NCI-H460 = tested on: NCI-H460
T47D = tested on: T47D
OVCAR-8 = tested on: OVCAR-8
Malme-3M = tested on: Malme-3M
DU-145 = tested on: DU-145
SF-295 = tested on: SF-295
OVCAR-5 = tested on: OVCAR-5
NCI-H23 = tested on: NCI-H23
K562 = tested on: K562
MDA-MB-435 = tested on: MDA-MB-435
SK-MEL-5 = tested on: SK-MEL-5
NCI/ADR-RES = tested on: NCI/ADR-RES
SF-539 = tested on: SF-539
HT-29 = tested on: HT-29
SW-620 = tested on: SW-620
MOLT-4 = tested on: MOLT-4
OVCAR-4 = tested on: OVCAR-4
HL-60 = tested on: HL-60
CCRF-CEM = tested on: CCRF-CEM
786-0 = tested on: 786-0
SK-MEL-28 = tested on: SK-MEL-28
IGROV-1 = tested on: IGROV-1
HCT-15 = tested on: HCT-15
EKVX = tested on: EKVX
MCF7 = tested on: MCF7
COLO 205 = tested on: COLO 205
PC-3 = tested on: PC-3
Hs-578T = tested on: Hs-578T
A498 = tested on: A498
SK-MEL-2 = tested on: SK-MEL-2
A549 = tested on: A549
SN12C = tested on: SN12C
HOP-92 = tested on: HOP-92
NCI-H522 = tested on: NCI-H522
SF-268 = tested on: SF-268
HCT-116 = tested on: HCT-116
KM12 = tested on: KM12
HOP-62 = tested on: HOP-62
RXF 393 = tested on: RXF 393
RPMI-8226 = tested on: RPMI-8226
HCC 2998 = tested on: HCC 2998
TK-10 = tested on: TK-10
SNB-75 = tested on: SNB-75
UACC-62 = tested on: UACC-62
NCI-H226 = tested on: NCI-H226
MDA-MB-231 = tested on: MDA-MB-231
BT-549 = tested on: BT-549
OVCAR-3 = tested on: OVCAR-3
MDA-N = tested on: MDA-N
SNB-19 = tested on: SNB-19
SK-OV-3 = tested on: SK-OV-3

Measured: GI50

COc1ccccc1N1C(=O)CSC1c1cc(OC)c(OC)c(OC)c1 (stereo not given)
50.6 µM: HCT-15
inactive: LOX IMVI 35.6 µM | M14 > 88.5 µM | CAKI-1 > 35 µM | ACHN > 100 µM | U-251 31.1 µM | SR 10.7 µM | UO-31 > 76.7 µM | UACC-257 > 84.7 µM | NCI-H460 > 100 µM | T47D 12.4 µM | OVCAR-8 > 100 µM | Malme-3M > 22.3 µM | DU-145 > 100 µM | SF-295 > 30.4 µM | OVCAR-5 > 100 µM | NCI-H23 > 100 µM | K562 24.9 µM | MDA-MB-435 14.7 µM | SK-MEL-5 25.5 µM | NCI/ADR-RES 69.8 µM | SF-539 15.8 µM | HT-29 > 100 µM | SW-620 27.5 µM | MOLT-4 27.9 µM | OVCAR-4 > 77.8 µM | HL-60 20.5 µM | CCRF-CEM 13.2 µM | 786-0 18.8 µM | SK-MEL-28 > 89.9 µM | IGROV-1 33 µM | EKVX > 100 µM | MCF7 16.3 µM | COLO 205 > 100 µM | PC-3 > 78.2 µM | Hs-578T > 59.7 µM | A498 > 100 µM | SK-MEL-2 55.7 µM | A549 > 100 µM | SN12C > 100 µM | HOP-92 50.9 µM | NCI-H522 17.7 µM | SF-268 > 46.1 µM | HCT-116 13.3 µM | KM12 21.3 µM | HOP-62 > 100 µM | RXF 393 > 52.1 µM | RPMI-8226 16.6 µM | HCC 2998 > 100 µM | TK-10 > 100 µM | SNB-75 > 100 µM | UACC-62 20.5 µM | NCI-H226 > 50 µM | MDA-MB-231 > 100 µM | BT-549 > 34 µM | OVCAR-3 > 46.3 µM | MDA-N 11.9 µM

O=C(C/C(=N/O)C(=O)NC1=C(Cl)C(=O)c2ccccc2C1=O)CC(c1ccccc1)c1c(O)c2ccccc2oc1=O (stereo not given)
inactive: LOX IMVI 3.39 µM | M14 4.59 µM | CAKI-1 17.3 µM | ACHN 19.8 µM | U-251 7.69 µM | SR 7.35 µM | UO-31 14.9 µM | UACC-257 18.5 µM | NCI-H460 3.15 µM | SNB-19 19.1 µM | T47D 12.1 µM | OVCAR-8 10.8 µM | Malme-3M 2.08 µM | DU-145 3.27 µM | SF-295 7.93 µM | OVCAR-5 17.7 µM | NCI-H23 3.63 µM | K562 16.3 µM | MDA-MB-435 2.22 µM | SK-MEL-5 1.12 µM | NCI/ADR-RES 11.2 µM | SF-539 8.11 µM | HT-29 4.84 µM | SK-OV-3 39 µM | SW-620 6.58 µM | MOLT-4 17.9 µM | OVCAR-4 10 µM | HL-60 2.39 µM | CCRF-CEM 4.56 µM | 786-0 10.4 µM | SK-MEL-28 7.43 µM | IGROV-1 4.52 µM | EKVX 14.5 µM | MCF7 6.85 µM | COLO 205 13.4 µM | PC-3 3.92 µM | Hs-578T 6.76 µM | A498 46.6 µM | SK-MEL-2 10.6 µM | A549 5.69 µM | SN12C 8.97 µM | HOP-92 22.3 µM | NCI-H522 13.2 µM | SF-268 7.35 µM | HCT-116 4.51 µM | KM12 3.5 µM | RXF 393 13.2 µM | RPMI-8226 19.1 µM | HCC 2998 11.9 µM | SNB-75 3.87 µM | UACC-62 3.14 µM | NCI-H226 2.48 µM | MDA-MB-231 4.57 µM | BT-549 16.4 µM | OVCAR-3 3.88 µM | MDA-N 1.72 µM
3.16 µM: HCT-15

O=C1C=CC(=O)c2c1cc([N+](=O)[O-])c1ccoc21
inactive: LOX IMVI 9.66 µM | M14 6.17 µM | CAKI-1 1.6 µM | ACHN 1.82 µM | U-251 18.5 µM | SR 5.37 µM | UO-31 3.01 µM | UACC-257 10.7 µM | NCI-H460 18.2 µM | SNB-19 21.5 µM | T47D 2.8 µM | OVCAR-8 26.2 µM | DU-145 9.06 µM | SF-295 19.1 µM | OVCAR-5 18.5 µM | NCI-H23 22.6 µM | K562 2.75 µM | MDA-MB-435 11.7 µM | SK-MEL-5 16.4 µM | NCI/ADR-RES 22.6 µM | SF-539 27.2 µM | HT-29 17.3 µM | SK-OV-3 20.4 µM | SW-620 2.36 µM | OVCAR-4 18.9 µM | CCRF-CEM 2.1 µM | 786-0 1.77 µM | SK-MEL-28 20.1 µM | IGROV-1 17.7 µM | EKVX 17.8 µM | MCF7 14.3 µM | COLO 205 2.49 µM | PC-3 15.6 µM | Hs-578T 28.1 µM | A498 15.5 µM | SK-MEL-2 18.4 µM | A549 20.9 µM | SN12C 15.2 µM | HOP-92 1.96 µM | NCI-H522 2.07 µM | SF-268 26.2 µM | HCT-116 6.03 µM | KM12 15.9 µM | HOP-62 16.5 µM | RXF 393 1.97 µM | RPMI-8226 4.37 µM | HCC 2998 19.5 µM | TK-10 2.18 µM | SNB-75 26.1 µM | UACC-62 15.8 µM | NCI-H226 26.6 µM | MDA-MB-231 21.3 µM | BT-549 16.9 µM | OVCAR-3 11.5 µM | MDA-N 17.1 µM
active: MOLT-4 0.942 µM | HL-60 0.743 µM
23.3 µM: HCT-15

Cn1c(=O)c2[nH]c(N/N=C3/SCC(=O)N3Cc3ccccc3)nc2n(C)c1=O
inactive: M14 44.3 µM | CAKI-1 > 100 µM | ACHN > 100 µM | U-251 55.3 µM | SR 24.9 µM | UO-31 > 100 µM | UACC-257 > 100 µM | NCI-H460 > 100 µM | SNB-19 > 100 µM | T47D 41.1 µM | OVCAR-8 > 100 µM | Malme-3M 52.5 µM | DU-145 65.6 µM | SF-295 21.2 µM | OVCAR-5 19 µM | NCI-H23 71.9 µM | K562 30.5 µM | MDA-MB-435 19.1 µM | SK-MEL-5 34.9 µM | NCI/ADR-RES > 100 µM | SF-539 29.1 µM | HT-29 48.9 µM | SK-OV-3 30.2 µM | MOLT-4 29 µM | OVCAR-4 41.6 µM | HL-60 69.5 µM | CCRF-CEM 22.1 µM | 786-0 27 µM | SK-MEL-28 > 100 µM | IGROV-1 > 100 µM | EKVX 42.1 µM | MCF7 19.4 µM | COLO 205 > 100 µM | PC-3 > 100 µM | Hs-578T 17.1 µM | A498 > 100 µM | SK-MEL-2 42.8 µM | A549 > 100 µM | SN12C > 100 µM | HOP-92 15.7 µM | NCI-H522 50.8 µM | SF-268 33.3 µM | HCT-116 45.4 µM | KM12 48.2 µM | HOP-62 > 100 µM | RXF 393 > 100 µM | RPMI-8226 42.4 µM | HCC 2998 > 100 µM | TK-10 > 100 µM | UACC-62 > 100 µM | NCI-H226 > 100 µM | MDA-MB-231 51.9 µM | BT-549 > 100 µM | OVCAR-3 74.5 µM | MDA-N 16.4 µM
> 100 µM: HCT-15

COc1ccc2ccc3oc(=O)c(C)cc3c2c1
inactive: LOX IMVI > 100 µM | M14 > 100 µM | CAKI-1 > 100 µM | ACHN > 100 µM | U-251 > 100 µM | SR > 100 µM | UO-31 25.2 µM | UACC-257 > 100 µM | NCI-H460 > 100 µM | SNB-19 > 100 µM | T47D 43.3 µM | OVCAR-8 > 100 µM | Malme-3M > 100 µM | DU-145 > 100 µM | SF-295 > 100 µM | OVCAR-5 > 100 µM | NCI-H23 > 100 µM | K562 > 100 µM | MDA-MB-435 > 100 µM | SK-MEL-5 > 100 µM | NCI/ADR-RES > 100 µM | SF-539 > 100 µM | HT-29 > 100 µM | SW-620 > 100 µM | MOLT-4 > 100 µM | OVCAR-4 > 100 µM | HL-60 > 100 µM | CCRF-CEM > 100 µM | 786-0 > 100 µM | SK-MEL-28 > 100 µM | IGROV-1 > 100 µM | EKVX 8.32 µM | MCF7 > 100 µM | COLO 205 > 100 µM | PC-3 > 100 µM | Hs-578T 78 µM | A498 > 100 µM | SK-MEL-2 > 100 µM | A549 > 100 µM | SN12C > 100 µM | HOP-92 > 10 µM | NCI-H522 > 100 µM | SF-268 > 100 µM | HCT-116 > 100 µM | KM12 > 100 µM | HOP-62 > 100 µM | RXF 393 > 100 µM | RPMI-8226 > 100 µM | HCC 2998 39.6 µM | TK-10 > 100 µM | SNB-75 28.8 µM | UACC-62 10.9 µM | NCI-H226 > 100 µM | MDA-MB-231 33.9 µM | BT-549 > 100 µM | OVCAR-3 > 100 µM | MDA-N > 100 µM
